Values after ≈ are worked out from the molar mass of the structure shown.
Columns and labels:
[1] = biological target: Hepatocyte growth factor receptor (Homo sapiens, UniProt P08581, Y1230C); assay: Inhibition of recombinant human MET A1209G/V1290L/Y1248C triple mutant (974 to end residues) using KKKGQEEEYVFIE as substrate incubated for 40 mins in presence of [gamma-33ATP by radiometric scintillation counting analysis
Activated CDC42 kinase 1 = Activated CDC42 kinase 1 (Homo sapiens, UniProt Q07912); assay: Inhibition of human recombinant ACK1 (1 to 389 residues) using EFPIYDFLPAKKK as substrate incubated for 40 mins in presence of [gamma-33P]ATP by radiometric scintillation counting analysis
Activated CDC42 kinase 1, sequence (Q07912 whole entry, the tested form may be a part): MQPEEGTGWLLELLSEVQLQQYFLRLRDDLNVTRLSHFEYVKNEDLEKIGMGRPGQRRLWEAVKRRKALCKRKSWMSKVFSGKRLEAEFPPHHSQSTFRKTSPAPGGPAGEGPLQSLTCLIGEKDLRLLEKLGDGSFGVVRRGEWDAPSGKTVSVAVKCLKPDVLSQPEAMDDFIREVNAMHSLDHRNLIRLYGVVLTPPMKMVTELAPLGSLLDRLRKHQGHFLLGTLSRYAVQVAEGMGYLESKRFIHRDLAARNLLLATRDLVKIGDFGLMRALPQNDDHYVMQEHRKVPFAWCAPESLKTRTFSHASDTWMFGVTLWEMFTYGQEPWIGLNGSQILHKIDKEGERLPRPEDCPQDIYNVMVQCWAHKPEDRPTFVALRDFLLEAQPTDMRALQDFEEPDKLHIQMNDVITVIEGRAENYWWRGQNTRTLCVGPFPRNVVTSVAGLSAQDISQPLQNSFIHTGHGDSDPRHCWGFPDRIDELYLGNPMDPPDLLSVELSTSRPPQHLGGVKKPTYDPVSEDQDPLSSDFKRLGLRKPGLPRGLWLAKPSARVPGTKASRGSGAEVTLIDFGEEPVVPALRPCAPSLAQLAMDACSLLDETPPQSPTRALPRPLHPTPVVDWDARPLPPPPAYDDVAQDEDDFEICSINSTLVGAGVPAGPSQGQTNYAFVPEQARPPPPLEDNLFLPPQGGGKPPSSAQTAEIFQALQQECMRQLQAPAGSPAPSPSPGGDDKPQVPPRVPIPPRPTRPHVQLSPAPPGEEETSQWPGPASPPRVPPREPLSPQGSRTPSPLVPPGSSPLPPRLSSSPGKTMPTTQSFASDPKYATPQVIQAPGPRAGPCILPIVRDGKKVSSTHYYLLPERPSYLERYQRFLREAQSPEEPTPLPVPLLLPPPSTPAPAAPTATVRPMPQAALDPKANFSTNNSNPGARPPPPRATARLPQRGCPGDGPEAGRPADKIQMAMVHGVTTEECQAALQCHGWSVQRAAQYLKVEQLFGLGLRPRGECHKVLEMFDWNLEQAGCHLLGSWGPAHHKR

[2] = biological target: Epidermal growth factor receptor (Homo sapiens, UniProt P00533, L858R); assay: Inhibition of recombinant human EGFR L858R mutant (696 to end residues) using poly(Glu, Tyr) 4:1 as substrate after 40 mins in presence of [gamma-33ATP] by radiometric scintillation counting analysis
[3] = biological target: MAPK/MAK/MRK overlapping kinase (Homo sapiens, UniProt Q9UQ07); assay: Inhibition of recombinant human MOK (1 to 343 residues) using RSRSRSRSRSRSR as substrate incubated for 40 mins in presence of [gamma-33ATP by radiometric scintillation counting analysis
[4] = biological target: Serine/threonine-protein kinase Nek6 (Homo sapiens, UniProt Q9HC98); assay: Inhibition of recombinant human NEK6 (2 to end residues) using FLAKSFGSPNRAYKK as substrate measured after 40 mins in presence of [gamma33P]ATP by radiometric scintillation counting analysis
[5] = biological target: Mitogen-activated protein kinase 8 (Homo sapiens, UniProt P45983); assay: Inhibition of recombinant full length human JNK1alpha1 using ATF2 as substrate after 40 mins by [gamma-33ATP] by radiometric scintillation counting analysis
[6] = biological target: High affinity nerve growth factor receptor (Homo sapiens, UniProt P04629); assay: Inhibition of recombinant human TRKA (440 to end residues) using KKKSPGEYVNIEF as substrate incubated for 40 mins in presence of [gamma33P]ATP by radiometric scintillation counting analysis
High affinity nerve growth factor receptor, sequence (P04629 whole entry): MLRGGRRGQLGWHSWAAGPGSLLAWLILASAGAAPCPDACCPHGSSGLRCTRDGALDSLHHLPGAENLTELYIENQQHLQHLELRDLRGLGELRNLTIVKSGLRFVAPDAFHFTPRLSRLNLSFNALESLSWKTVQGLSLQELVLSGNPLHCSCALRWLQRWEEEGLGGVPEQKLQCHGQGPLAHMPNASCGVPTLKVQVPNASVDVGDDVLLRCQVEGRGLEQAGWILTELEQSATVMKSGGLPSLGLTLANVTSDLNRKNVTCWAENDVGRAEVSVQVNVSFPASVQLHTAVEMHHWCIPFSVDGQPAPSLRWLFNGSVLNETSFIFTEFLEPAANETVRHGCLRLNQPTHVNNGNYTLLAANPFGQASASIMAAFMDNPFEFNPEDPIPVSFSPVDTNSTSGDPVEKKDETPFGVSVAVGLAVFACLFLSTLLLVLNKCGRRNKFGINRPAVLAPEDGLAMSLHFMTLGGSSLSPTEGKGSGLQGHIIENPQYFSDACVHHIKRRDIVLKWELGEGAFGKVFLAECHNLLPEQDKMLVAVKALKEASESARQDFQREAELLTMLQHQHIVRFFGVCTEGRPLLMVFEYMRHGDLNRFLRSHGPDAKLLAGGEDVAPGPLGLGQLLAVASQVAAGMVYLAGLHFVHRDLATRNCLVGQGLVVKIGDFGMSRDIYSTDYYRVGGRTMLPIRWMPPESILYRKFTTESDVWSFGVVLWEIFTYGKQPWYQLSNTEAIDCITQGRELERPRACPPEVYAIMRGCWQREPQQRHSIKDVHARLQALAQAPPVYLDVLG

[7] = biological target: Serine/threonine-protein kinase NLK (Homo sapiens, UniProt Q9UBE8); assay: Inhibition of recombinant human NLK (121 to end residues) using protein as substrate measured after 40 mins in presence of [gamma33P]ATP by radiometric scintillation counting analysis
Serine/threonine-protein kinase NLK, sequence (Q9UBE8 whole entry): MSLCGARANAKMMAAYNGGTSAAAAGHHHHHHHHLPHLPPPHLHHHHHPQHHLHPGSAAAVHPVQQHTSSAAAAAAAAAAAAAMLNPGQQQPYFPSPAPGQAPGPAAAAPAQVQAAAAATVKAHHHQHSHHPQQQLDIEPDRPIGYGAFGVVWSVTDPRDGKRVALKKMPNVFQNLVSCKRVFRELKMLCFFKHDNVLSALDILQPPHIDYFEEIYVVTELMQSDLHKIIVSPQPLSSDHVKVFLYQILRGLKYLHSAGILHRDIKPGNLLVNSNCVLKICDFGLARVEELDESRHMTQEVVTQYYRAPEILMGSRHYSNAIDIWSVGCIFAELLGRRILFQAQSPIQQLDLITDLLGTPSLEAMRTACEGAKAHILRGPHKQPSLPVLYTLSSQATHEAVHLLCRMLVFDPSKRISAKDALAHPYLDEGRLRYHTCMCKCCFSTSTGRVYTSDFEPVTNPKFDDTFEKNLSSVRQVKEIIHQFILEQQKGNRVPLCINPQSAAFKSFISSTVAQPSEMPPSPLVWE

[8] = biological target: Calcium/calmodulin-dependent protein kinase type 1B (Homo sapiens, UniProt Q6P2M8); assay: Inhibition of recombinant full length human CaMK1beta using KKLRRTLSFAEP as substrate incubated for 40 mins in presence of [gamma-33ATP] by radiometric scintillation counting analysis
[9] = Solubility of compound in miniQ water at 1 mg at 37 degreeC incubated under shaking conditions for overnight by LC-MS analysis; type: physicochemical
[10] = biological target: Cyclin-dependent kinase-like 3 (Homo sapiens, UniProt Q8IVW4); assay: Inhibition of recombinant full length human CDKL3 using RRRFRPASPLRGPPK as substrate incubated for 120 mins in presence of [gamma-33ATP] by radiometric scintillation counting analysis
[11] = biological target: BDNF/NT-3 growth factors receptor (Homo sapiens, UniProt Q16620); assay: Inhibition of recombinant human TRKB (455 to end residues) using poly(Glu, Tyr) 4:1 as substrate incubated for 40 mins in presence of [gamma33P]ATP by radiometric scintillation counting analysis
BDNF/NT-3 growth factors receptor, sequence (Q16620 whole entry): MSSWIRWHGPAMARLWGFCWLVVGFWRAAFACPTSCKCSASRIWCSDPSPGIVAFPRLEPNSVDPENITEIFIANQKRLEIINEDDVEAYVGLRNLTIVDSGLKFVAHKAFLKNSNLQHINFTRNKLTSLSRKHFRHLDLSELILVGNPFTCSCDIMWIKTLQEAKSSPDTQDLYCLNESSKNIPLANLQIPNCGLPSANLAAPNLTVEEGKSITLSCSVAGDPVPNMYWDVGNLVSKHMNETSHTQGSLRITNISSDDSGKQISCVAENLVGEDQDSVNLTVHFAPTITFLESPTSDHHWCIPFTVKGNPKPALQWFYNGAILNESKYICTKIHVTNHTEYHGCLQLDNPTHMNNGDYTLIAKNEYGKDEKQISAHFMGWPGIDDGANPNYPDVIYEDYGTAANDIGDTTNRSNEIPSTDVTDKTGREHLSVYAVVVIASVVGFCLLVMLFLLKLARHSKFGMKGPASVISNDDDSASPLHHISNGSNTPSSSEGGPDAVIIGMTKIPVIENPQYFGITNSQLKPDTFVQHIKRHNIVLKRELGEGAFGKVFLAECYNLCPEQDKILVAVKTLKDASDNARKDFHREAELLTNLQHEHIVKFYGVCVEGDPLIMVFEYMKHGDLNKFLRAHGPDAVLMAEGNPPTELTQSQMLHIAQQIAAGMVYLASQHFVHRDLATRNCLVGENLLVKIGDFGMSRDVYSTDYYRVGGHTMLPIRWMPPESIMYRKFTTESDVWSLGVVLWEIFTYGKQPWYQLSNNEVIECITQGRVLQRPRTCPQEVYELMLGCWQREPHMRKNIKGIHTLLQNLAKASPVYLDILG

[12] = biological target: Tyrosine-protein kinase Fes/Fps (Homo sapiens, UniProt P07332); assay: Inhibition of recombinant human FES (2 to end residues) using poly(Glu, Tyr) 4:1 as substrate after 40 mins in presence of [gamma-33ATP] by radiometric scintillation counting analysis
[13] = biological target: Death-associated protein kinase 3 (Homo sapiens, UniProt O43293); assay: Inhibition of recombinant human ZIPK (1 to 290 residues) using KKLNRTLSFAEPG substrate incubated for 40 mins in presence of [gamma33P]ATP by radiometric scintillation counting analysis
[14] = biological target: Hepatocyte growth factor receptor (Homo sapiens, UniProt P08581, D1228H); assay: Inhibition of recombinant human MET A1209G/V1290L/D1246H triple mutant (974 to end residues) using KKKGQEEEYVFIE as substrate incubated for 40 mins in presence of [gamma-33ATP by radiometric scintillation counting analysis
[15] = Protein binding in human plasma at 1 uM incubated incubated for 5 hrs under shaking conditions by LC-MS analysis; type: ADME, cell-free; conditions: read-out: PPB (converted)
[16] = biological target: Serine/threonine-protein kinase B-raf (Homo sapiens, UniProt P15056); assay: Inhibition of recombinant full length human B-Raf (416 to end residues) using myelin basic protein substrate incubated for 40 mins in presence of [gamma-33ATP] by radiometric scintillation counting analysis
[17] = biological target: Tyrosine-protein kinase Blk (Homo sapiens, UniProt P51451); assay: Inhibition of human full-length recombinant BLK M287V mutant using poly(Glu, Tyr) 4:1 as substrate measured after 40 mins in presence of [gamma33P]ATP by radiometric scintillation counting analysis
Tyrosine-protein kinase Blk, sequence (P51451 whole entry): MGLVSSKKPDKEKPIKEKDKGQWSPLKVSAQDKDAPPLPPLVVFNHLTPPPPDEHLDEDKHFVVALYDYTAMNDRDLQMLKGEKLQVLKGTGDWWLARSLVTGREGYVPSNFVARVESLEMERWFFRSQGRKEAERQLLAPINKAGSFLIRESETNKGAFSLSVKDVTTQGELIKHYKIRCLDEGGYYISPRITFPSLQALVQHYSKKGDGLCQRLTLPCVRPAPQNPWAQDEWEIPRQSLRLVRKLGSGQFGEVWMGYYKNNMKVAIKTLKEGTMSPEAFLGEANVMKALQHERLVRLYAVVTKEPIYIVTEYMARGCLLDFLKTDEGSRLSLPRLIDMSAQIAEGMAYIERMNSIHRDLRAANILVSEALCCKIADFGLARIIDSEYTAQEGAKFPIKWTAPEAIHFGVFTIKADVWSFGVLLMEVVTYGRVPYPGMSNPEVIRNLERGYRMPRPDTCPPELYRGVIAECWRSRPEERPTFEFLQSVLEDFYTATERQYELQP

[18] = biological target: RAC-beta serine/threonine-protein kinase (Homo sapiens, UniProt P31751, S474D); assay: Inhibition of recombinant human PKBbeta S474D mutant (120 to end residues) using GRPRTSSFAEGKK as substrate incubated for 40 mins in presence of [gamma33P]ATP by radiometric scintillation counting analysis
[19] = biological target: Serine/threonine-protein kinase D2 (Homo sapiens, UniProt Q9BZL6); assay: Inhibition of recombinant full-length human PKD2 using KKLNRTLSVA as substrate incubated for 40 mins in presence of [gamma33P]ATP by radiometric scintillation counting analysis
[20] = biological target: Serine/threonine-protein kinase Nek4 (Homo sapiens, UniProt P51957, P225A); assay: Inhibition of recombinant full-length human NEK4 P225A mutant using myelin basic protein as substrate measured after 40 mins in presence of [gamma33P]ATP by radiometric scintillation counting analysis
Serine/threonine-protein kinase Nek4, sequence (P51957 whole entry P225A): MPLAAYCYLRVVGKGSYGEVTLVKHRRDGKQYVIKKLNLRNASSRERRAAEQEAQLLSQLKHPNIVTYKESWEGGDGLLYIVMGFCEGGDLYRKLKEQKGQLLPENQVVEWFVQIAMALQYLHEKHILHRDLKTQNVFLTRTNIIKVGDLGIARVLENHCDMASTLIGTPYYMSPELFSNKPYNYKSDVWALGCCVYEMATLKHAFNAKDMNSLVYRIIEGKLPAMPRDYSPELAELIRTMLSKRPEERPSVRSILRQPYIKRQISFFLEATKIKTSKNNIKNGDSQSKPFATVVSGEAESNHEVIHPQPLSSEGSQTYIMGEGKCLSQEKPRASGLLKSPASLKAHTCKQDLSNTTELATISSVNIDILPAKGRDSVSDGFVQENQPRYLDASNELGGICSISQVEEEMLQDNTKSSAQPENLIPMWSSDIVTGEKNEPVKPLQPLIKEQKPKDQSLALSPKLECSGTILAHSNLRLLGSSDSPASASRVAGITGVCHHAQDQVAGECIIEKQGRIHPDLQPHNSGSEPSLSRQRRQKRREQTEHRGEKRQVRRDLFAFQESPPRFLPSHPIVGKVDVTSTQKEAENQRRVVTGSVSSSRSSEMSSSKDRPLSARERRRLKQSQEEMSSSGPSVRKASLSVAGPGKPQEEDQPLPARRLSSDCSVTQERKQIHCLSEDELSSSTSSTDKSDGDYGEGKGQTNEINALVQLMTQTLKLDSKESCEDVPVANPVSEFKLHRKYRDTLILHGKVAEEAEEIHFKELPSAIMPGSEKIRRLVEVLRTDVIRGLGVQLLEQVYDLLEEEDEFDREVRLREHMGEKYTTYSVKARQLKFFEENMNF

[21] = biological target: Serine/threonine-protein kinase 32C (Homo sapiens, UniProt Q86UX6); assay: Inhibition of recombinant human full length STK32C using casein as substrate incubated for 120 mins in presence of [gamma33P]ATP by radiometric scintillation counting analysis
Serine/threonine-protein kinase 32C, sequence (Q86UX6 whole entry): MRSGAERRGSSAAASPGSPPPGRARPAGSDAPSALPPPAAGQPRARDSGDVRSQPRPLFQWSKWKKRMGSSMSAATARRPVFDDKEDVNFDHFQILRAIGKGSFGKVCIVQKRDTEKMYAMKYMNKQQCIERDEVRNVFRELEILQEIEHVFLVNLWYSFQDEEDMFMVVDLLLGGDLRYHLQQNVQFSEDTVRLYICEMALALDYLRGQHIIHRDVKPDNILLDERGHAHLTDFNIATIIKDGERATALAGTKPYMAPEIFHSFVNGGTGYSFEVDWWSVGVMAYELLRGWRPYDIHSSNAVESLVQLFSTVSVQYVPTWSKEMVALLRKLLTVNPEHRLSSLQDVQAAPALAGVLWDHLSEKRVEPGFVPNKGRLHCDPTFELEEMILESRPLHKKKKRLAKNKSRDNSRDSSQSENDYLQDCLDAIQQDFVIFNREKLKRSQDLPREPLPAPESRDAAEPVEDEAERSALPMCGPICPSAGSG

[22] = biological target: Serine/threonine-protein kinase Nek11 (Homo sapiens, UniProt Q8NG66); assay: Inhibition of recombinant full length human NEK11 using myelin basic protein as substrate measured after 40 mins in presence of [gamma33P]ATP by radiometric scintillation counting analysis
LIM domain kinase 1 = LIM domain kinase 1 (Homo sapiens, UniProt P53667); assay: Inhibition of recombinant human LIMK1 (285 to 638 residues) using cofilin as substrate after 40 mins in presence of [gamma-33ATP] by radiometric scintillation counting analysis
[23] = biological target: Protein kinase C zeta type (Homo sapiens, UniProt Q05513); assay: Inhibition of recombinant human PKCzeta (2 to end residues) using ERMRPRKRQGSVRR as substrate incubated for 40 mins in presence of [gamma33P]ATP by radiometric scintillation counting analysis
[24] = biological target: Serine/threonine-protein kinase 16 (Homo sapiens, UniProt O75716); assay: Inhibition of human STK16 in presence of 10 uM ATP by radiometric analysis

## CN(C)c1ccc(C(=O)Nc2cccc(NC(=O)COc3ccc4c(=O)ccoc4c3)c2)cc1
[1]
  IC50: > 10 µM
Activated CDC42 kinase 1
  IC50: > 10 µM
[2]
  IC50: > 10 µM
[3]
  IC50: > 10 µM
[4]
  IC50: > 10 µM
[5]
  IC50: > 10 µM
[6]
  IC50: > 10 µM
[7]
  IC50: > 10 µM
[8]
  IC50: > 10 µM
[9]
  solubility thermodynamic: 0.634 µg/mL (≈ 1.39 µM)
[10]
  IC50: > 10 µM
[11]
  IC50: > 10 µM
[12]
  IC50: > 10 µM
[13]
  IC50: > 10 µM
[14]
  IC50: > 10 µM
[15]
  fraction unbound at 5 h, 1 µM: 0.002
[16]
  IC50: > 10 µM
[17]
  IC50: > 10 µM
[18]
  IC50: > 10 µM
[19]
  IC50: > 10 µM
[20]
  IC50: > 10 µM
[21]
  IC50: > 10 µM
[22]
  IC50: > 10 µM
LIM domain kinase 1
  IC50: > 10 µM
[23]
  IC50: > 10 µM
[24]
  IC50: > 10 µM

— ChEMBL document CHEMBL4376834, “Discovery of 4H-Chromen-4-one Derivatives as a New Class of Selective Rho Kinase (ROCK) Inhibitors, which Showed Potent Activity in ex Vivo Diabetic Retinopathy Models” (J Med Chem, 2019)
